Laboratory results: patent US20010054579A1, “METHOD OF SEPARATING DIFFERENT CHEMICALS IN A SAMPLE” (priority 1997, published 2001)

Key:
Assay type in all cases: physicochemical
[1] = Reversed-phase liquid chromatography retention factor (log k) on pentyl bonded phase; settings: C5 column; for log k in 80% CH3CN, C5: aqueous 80% acetonitrile at 40° C.
Description: (§1) The inertness and the chemical stability of the synthesized hexyl-phenyl bonded silica gel were studied by looking at the retention factors and peak shapes of pyridine, benzoic acid, 8-hydroxyquinoline, and naphthalene disclosed in T. Hanai, Encyclopedia of Analytical Science (1995), Academic Press, London, p. […] which is hereby incorporated herein by reference. The retention factor, in terms of measured parameters, is “k=(tR−tO)/tO”: where tR is retention time of the measured peak; and to is retention time of non-retained component.
(§2) The retention capacities of alkyl-phenyl bonded silica gels were compared from the retention factors for alkylbenzenes and polycyclic aromatic hydrocarbons (PAH).
(§3) […] The log k values were used for the analysis of hydrophobicity of bonded phases using van der Waals volumes of analytes as the standard.
(§4) The liquid chromatograph was a model HP1090 from Hewlett-Packard (Palo Alto, Calif. USA), and the chemically-bonded silica gel columns, —C18, —C8 and —C5, —C6Ph, —C3Ph, 15 cm×4.6 mm I.D., were from Phenomenex Inc. (Torrance, Calif. USA). Chemicals used were from Aldrich and ChemService. HPLC grade acetonitrile and water were from Fisher Scientific (Tustin, Calif. USA).

[2] = Reversed-phase liquid chromatography retention factor (log k) on octyl bonded phase; settings: C8 column; for log k in 80% CH3CN, C8: aqueous 80% acetonitrile at 40° C.
Description: as §1, §2, §3, §4

[3] = Reversed-phase liquid chromatography retention factor (log k) on octadecyl bonded phase; settings: C18 column; for log k in 80% CH3CN, C18: aqueous 80% acetonitrile at 40° C.
Description: as §1, §2, §3, §4

[4] = Reversed-phase liquid chromatography retention factor (log k) on propyl-phenyl bonded phase; settings: C3Ph column; for log k in 80% CH3CN, C3Ph: aqueous 80% acetonitrile at 40° C.
Description: as §1, §2, §3, §4

[5] = Reversed-phase liquid chromatography retention factor (log k) on hexyl-phenyl bonded phase; settings: C6Ph column; for log k in 80% CH3CN, C6Ph: aqueous 80% acetonitrile at 40° C.
Description: as §1, §2, §3, §4

log k in 80% CH3CN, C5 [1] | log k in 80% CH3CN, C8 [2] | log k in 80% CH3CN, C18 [3] | log k in 80% CH3CN, C3Ph [4] | log k in 80% CH3CN, C6Ph [5] | SMILES | log k in 70% CH3CN, C5 [1] | log k in 70% CH3CN, C8 [2] | log k in 70% CH3CN, C18 [3] | log k in 70% CH3CN, C3Ph [4] | log k in 70% CH3CN, C6Ph [5]
0.679 | 0.806 | 1.021 | 0.430 | 0.572 | CCCCCCc1ccccc1 [Hexylbenzene] | 0.894 | 1.043 | 1.310 | 0.747 | 0.871
– | – | – | – | – | c1cc2c3c(cccc3c1)CC2 [Acenaphthene] | – | 0.629 | 0.814 | 0.447 | 0.616
– | – | – | – | – | c1ccc2c(c1)-c1cccc3c1c-2cc1ccccc13 [Benzo(b)fluoranthene] | 0.741 | 0.943 | 1.325 | 0.714 | 0.970
– | – | – | – | – | c1ccc2cc3c(ccc4ccccc43)cc2c1 [Benzo(a)anthracene] | 0.692 | 0.860 | 1.177 | 0.647 | 0.878
– | – | – | – | – | C1=Cc2cccc3cccc1c23 [Acenaphthylene] | 0.450 | 0.540 | 0.663 | 0.364 | 0.521
– | – | – | – | – | c1ccc2c(c1)cc1ccc3cccc4ccc2c1c34 [Benzo(a)pyrene] | 0.755 | 0.071 | 1.375 | 0.733 | 1.009
– | – | – | – | – | c1cc2ccc3ccc4ccc5cccc6c(c1)c2c3c4c56 [Benzo(g,h,i)perylene] | 0.822 | 1.067 | – | 0.799 | 1.118
0.906 | 1.063 | 1.356 | 0.589 | 0.757 | CCCCCCCCc1ccccc1 [Octylbenzene] | 1.144 | 1.318 | 1.673 | 0.947 | 1.095
– | – | – | – | – | c1ccc2cc3ccccc3cc2c1 [Anthracene] | 0.562 | 0.688 | 0.894 | 0.490 | 0.679
– | – | – | – | – | c1ccc2c(c1)ccc1cc3c(ccc4ccccc43)cc12 [Dibenzo(a,h)anthracene] | 0.803 | 1.032 | 1.479 | 0.806 | 1.071
– | – | – | – | – | c1cc2ccc3cccc4ccc(c1)c2c34 [Pyrene] | 0.614 | 0.777 | 1.038 | 0.553 | 0.778
– | – | – | – | – | c1ccc2c(c1)ccc1ccccc12 [Phenanthrene] | 0.538 | 0.660 | 0.854 | 0.468 | 0.655
– | – | – | – | – | c1ccccc1 [Benzene] | 0.209 | 0.281 | 0.340 | 0.167 | 0.230
0.794 | 0.937 | 1.188 | 0.512 | 0.667 | CCCCCCCc1ccccc1 [Heptylbenzene] | 1.019 | 1.181 | 1.491 | 0.851 | 0.985
– | – | – | – | – | c1ccc2c(c1)Cc1ccccc1-2 [Fluorene] | 0.527 | 0.629 | 0.794 | 0.436 | 0.602
1.139 | 1.324 | 1.697 | 0.748 | 0.941 | CCCCCCCCCCc1ccccc1 [Decylbenzene] | 1.400 | – | – | 1.146 | 1.313
1.022 | 1.193 | 1.528 | 0.668 | 0.849 | CCCCCCCCCc1ccccc1 [Nonylbenzene] | 1.271 | 1.457 | – | 1.046 | 1.204
– | – | – | – | – | c1ccc2ccccc2c1 [Naphthalene] | 0.410 | 0.486 | 0.582 | 0.305 | 0.470
– | – | – | – | – | c1ccc2c(c1)-c1cccc3cccc-2c13 [Fluoranthene] | 0.599 | 0.747 | 0.989 | 0.535 | 0.746
0.567 | 0.680 | 0.858 | 0.350 | 0.480 | CCCCCc1ccccc1 [Pentylbenzene] | 0.772 | 0.908 | 1.134 | 0.646 | 0.758
– | – | – | – | – | c1ccc2cc3c(cc2c1)-c1cccc2cccc-3c12 [Benzo(k)fluoranthene] | 0.741 | 0.959 | 1.347 | 0.726 | 0.982
0.362 | 0.442 | 0.548 | 0.196 | 0.303 | CCCc1ccccc1 [Propylbenzene] | 0.537 | 0.644 | 0.800 | 0.449 | 0.538
– | – | – | – | – | c1ccc2c(c1)-c1ccc3ccc4cccc5cc-2c1c3c45 [Indeno(1,2,3 cd)pyrene] | 0.822 | 1.067 | – | 0.803 | 1.102
– | – | – | – | – | c1ccc2c(c1)ccc1c3ccccc3ccc21 [Chrysene] | 0.673 | 0.842 | 1.160 | 0.635 | 0.869

SMILES | log k in 80% CH3CN, C5 [1] | log k in 80% CH3CN, C8 [2] | log k in 80% CH3CN, C18 [3] | log k in 80% CH3CN, C3Ph [4] | log k in 80% CH3CN, C6Ph [5] | log k in 70% CH3CN, C5 [1] | log k in 70% CH3CN, C8 [2] | log k in 70% CH3CN, C18 [3] | log k in 70% CH3CN, C3Ph [4] | log k in 70% CH3CN, C6Ph [5]
CCCCc1ccccc1 [Butylbenzene] | 0.462 | 0.561 | 0.702 | 0.274 | 0.391 | 0.653 | 0.776 | 0.963 | 0.548 | 0.648
CCc1ccccc1 [Ethylbenzene] | 0.258 | 0.324 | 0.394 | 0.121 | 0.215 | 0.417 | 0.513 | 0.628 | 0.348 | 0.428
